Several values for one entry are separate records, joined by “and”; a condition that tells them apart may be missing. Identical values can stand only once.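 Briefly, cells in 96-well plates were exposed to five compound concentrations for 48 h, and endpoints were estimated by linear interpolation. The concentration for 50% growth inhibition is given as GI50. TGI: concentration producing complete growth inhibition.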
How the values were obtained:
Assay in all cases: growth of human tumour cells (NCI), 48 h
DU-145 prostate = test system: DU-145 prostate
MCF7 breast = test system: MCF7 breast
MDA-MB-231 breast = test system: MDA-MB-231 breast
OVCAR-3 ovarian = test system: OVCAR-3 ovarian
SF-268 CNS = test system: SF-268 CNS
SF-539 CNS = test system: SF-539 CNS
SN12C renal = test system: SN12C renal
UO-31 renal = test system: UO-31 renal
DLD-1 colon = test system: DLD-1 colon

Structure (SMILES) | GI50 (DU-145 prostate) | TGI (DU-145 prostate) | GI50 (MCF7 breast) | TGI (MCF7 breast) | GI50 (MDA-MB-231 breast) | TGI (MDA-MB-231 breast) | GI50 (OVCAR-3 ovarian) | TGI (OVCAR-3 ovarian) | GI50 (SF-268 CNS) | TGI (SF-268 CNS) | GI50 (SF-539 CNS) | TGI (SF-539 CNS) | GI50 (SN12C renal) | TGI (SN12C renal) | GI50 (UO-31 renal) | TGI (UO-31 renal) | TGI (DLD-1 colon) [µM]
CN1CCN(Cc2cc(NC(=O)c3cccc(C#Cc4cccc5[nH]nc(N)c45)c3)cc(C(F)(F)F)c2)CC1 | 1.7 µM | 3.07 µM | 1.65 µM | 3.26 µM | 1.38 µM | 2.73 µM | 1.92 µM | 3.56 µM | 1.53 µM | 3.15 µM | 1.17 µM | 2.43 µM | 1.66 µM | 3.13 µM | 1.71 µM | 3.16 µM | –
O=C(/C=C/OC(=O)c1cccc(Cl)c1)c1ccc(Cl)cc1 | 44 µM | > 100 µM | 48.7 µM | > 100 µM | 52.2 µM | > 100 µM | 21.7 µM | > 74 µM | 41.9 µM | > 100 µM | 23.1 µM | 55.2 µM | 28.5 µM | > 100 µM | > 100 µM | > 100 µM | –
FC(F)(F)c1cc(Nc2ccc3cc(OCCCN4CCOCC4)ccc3n2)ccc1Cl | 3.17 µM | 13.3 µM | 1.51 µM | 3.56 µM | 1.83 µM | 4.2 µM | 1.93 µM | 4.47 µM | 1.9 µM | 4.71 µM | 1.75 µM | 3.73 µM | 2.96 µM | 12.9 µM | 1.55 µM | 3.27 µM | –
O=C(O)Cc1cccc2c(=O)c3cccc([N+](=O)[O-])c3oc12 | – | > 100 µM | – | > 100 µM | – | > 100 µM | – | > 100 µM | – | > 100 µM | – | > 100 µM | – | > 100 µM | – | > 100 µM | –
Cn1cnc([N+](=O)[O-])c1Sc1nccc(=O)[nH]1 | – | – | – | – | – | – | – | > 100 µM | – | > 100 µM | – | > 100 µM | – | > 100 µM | – | > 100 µM | > 100
Cc1ccc(S(=O)(=O)N2CCc3ccc(O)c4c3C2Cc2ccc3c(c2-4)OCO3)cc1 (configuration not stated) | 1.27 µM | 8.63 µM | 0.317 µM | 10.2 µM | 1.47 µM | 9.48 µM | 0.286 µM | 0.707 µM | 1.01 µM | 23.3 µM | 1.02 µM | 5.26 µM | 2.32 µM | > 40 µM | 0.904 µM | 11.8 µM | –
CCN(Cc1ccc(F)cc1)c1ccc(CO)c(OC)c1 | 27.6 µM | > 95.2 µM | 25.3 µM | > 100 µM | 23.1 µM | > 88.5 µM | 13.1 µM | 27.5 µM | 22.1 µM | > 65.4 µM | 45.1 µM | > 100 µM | 21.9 µM | > 100 µM | 13.7 µM | 35.6 µM | –
COc1cc2c(cc1C)NC(=O)/C2=C\c1c[nH]c2ccccc12 | 15.3 µM | 41.1 µM | 12.4 µM | 49.7 µM | 4.3 µM | 21.5 µM | 15.4 µM | 62.9 µM | 12 µM | 36.3 µM | 14 µM | 31.9 µM | 11.6 µM | 27.7 µM | 10.4 µM | 62.9 µM | –
CN(C)c1ccc(N=C2C=CC(=O)c3ccccc32)cc1 | 1.74 µM | 3.13 µM | 1.87 µM | 7.46 µM | 0.899 µM | 12.7 µM | 1.28 µM | 3.08 µM | 2.92 µM | 13.1 µM | 3.11 µM | 11.4 µM | 2.54 µM | 9.28 µM | 2.28 µM | 16.6 µM | –
Cc1ccc(S(=O)(=O)Nc2ccc(-c3cc(-c4cccc(F)c4)c(C#N)c(N)n3)cc2)cc1 | 2.33 µM | 5.45 µM | 2.32 µM | 10 µM | 1.95 µM | 4.6 µM | 1.63 µM | 3.12 µM | 2.97 µM | 12.8 µM | 1.56 µM | 3.02 µM | 2.2 µM | 7.11 µM | 1.32 µM | 2.59 µM | –
CCC[CH2][Pb]([Cl])([CH2]CCC)[CH2]CCC | 0.0978 µM | 0.22 µM | 0.0161 µM | 0.0361 µM | 0.0328 µM | 0.122 µM | 0.0204 µM | 0.0499 µM | 0.0192 µM | 0.0677 µM | 0.0338 µM | 0.0892 µM | 0.0152 µM | 0.0294 µM | 0.031 µM | 0.0809 µM | –
C#Cc1cccc(NC(=O)c2ccc(NC(=O)CCl)cc2)c1 | > 82.5 µM | > 82.5 µM | 22.6 µM | > 82.5 µM | 24 µM | > 82.5 µM | 12.7 µM | 25.7 µM | 18.7 µM | > 82.5 µM | 12.6 µM | 24.7 µM | 18.6 µM | > 82.5 µM | 9.48 µM | 20.3 µM | –
COCc1c(-c2ccc(NC(=O)Nc3cc(C(F)(F)F)ccc3F)c(F)c2)c2c(N)ncnn2c1CN1CCOCC1 | 2.09 µM | > 10 µM | 2.2 µM | 8.23 µM | 1.91 µM | > 10 µM | 3.37 µM | > 10 µM | 1.13 µM | 5.2 µM | 0.283 µM | 2.64 µM | 1.39 µM | > 10 µM | 1.59 µM | > 10 µM | –
COc1cc(/C=C2\C[C@H]3[C@@H]4CC=C5C[C@@H](OC(C)=O)CC[C@]5(C)[C@H]4CC[C@]3(C)[C@H]2OC(C)=O)ccc1OCCN1CCCC1 | 1.3 µM | 9.69 µM | 11.1 µM | 29.6 µM | 9.01 µM | 17 µM | 10.9 µM | 23.6 µM | 8.94 µM | 18.8 µM | 8.7 µM | 17.3 µM | 7.79 µM | 15.7 µM | 13.1 µM | 28.9 µM | –
COc1cccc2c1C(=O)c1c(O)c3c(c(O)c1C2=O)CC(O)(C(=O)CO)CC3OC1CC(N)C(O)C(C)O1 (configuration not stated) | 15.9 µg/mL and 71 µg/mL | 75 µg/mL and > 150 µg/mL | 2.76 µg/mL and 10.7 µg/mL | 75 µg/mL and > 150 µg/mL | 44.1 µg/mL and 79.3 µg/mL | 75 µg/mL and > 150 µg/mL | 22.6 µg/mL and 35.8 µg/mL | 75 µg/mL and > 150 µg/mL | 7.5 µg/mL | 75 µg/mL | 38.3 µg/mL and 18.8 µg/mL | 75 µg/mL and 94.8 µg/mL | 14.4 µg/mL and 13 µg/mL | 75 µg/mL and > 150 µg/mL | 59 µg/mL and > 150 µg/mL | 75 µg/mL and > 150 µg/mL | –

From PubChem BioAssay (NCI)
